Columns and labels:
[1] = molecular target: T1, Amine oxidase [flavin-containing] A (Homo sapiens, UniProt P21397); test: Inhibition of MAO-A (unknown origin) at 1 mM relative to control
T1 sequence (P21397 whole entry): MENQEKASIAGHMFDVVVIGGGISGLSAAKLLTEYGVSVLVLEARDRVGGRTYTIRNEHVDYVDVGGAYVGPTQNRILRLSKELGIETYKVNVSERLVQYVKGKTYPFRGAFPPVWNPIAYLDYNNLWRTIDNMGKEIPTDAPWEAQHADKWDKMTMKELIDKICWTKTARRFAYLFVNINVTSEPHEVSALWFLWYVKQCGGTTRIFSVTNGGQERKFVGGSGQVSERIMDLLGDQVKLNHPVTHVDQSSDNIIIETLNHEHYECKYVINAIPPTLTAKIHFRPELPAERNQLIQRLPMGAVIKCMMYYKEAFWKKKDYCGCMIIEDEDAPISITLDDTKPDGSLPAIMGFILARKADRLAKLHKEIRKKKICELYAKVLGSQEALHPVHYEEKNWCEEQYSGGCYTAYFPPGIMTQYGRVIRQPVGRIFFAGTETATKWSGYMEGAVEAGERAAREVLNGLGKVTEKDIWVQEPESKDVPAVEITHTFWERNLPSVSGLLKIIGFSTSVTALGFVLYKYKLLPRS

[2] = molecular target: T1, Amine oxidase [flavin-containing] A; test: Inhibition of MAO-A (unknown origin) at 10 mM relative to control; set-up: dose or concentration left out as unconfirmed
[3] = molecular target: T2, Amine oxidase [flavin-containing] B (Homo sapiens, UniProt P27338); test: Inhibition of MAO-B (unknown origin)
T2 sequence (P27338 whole entry): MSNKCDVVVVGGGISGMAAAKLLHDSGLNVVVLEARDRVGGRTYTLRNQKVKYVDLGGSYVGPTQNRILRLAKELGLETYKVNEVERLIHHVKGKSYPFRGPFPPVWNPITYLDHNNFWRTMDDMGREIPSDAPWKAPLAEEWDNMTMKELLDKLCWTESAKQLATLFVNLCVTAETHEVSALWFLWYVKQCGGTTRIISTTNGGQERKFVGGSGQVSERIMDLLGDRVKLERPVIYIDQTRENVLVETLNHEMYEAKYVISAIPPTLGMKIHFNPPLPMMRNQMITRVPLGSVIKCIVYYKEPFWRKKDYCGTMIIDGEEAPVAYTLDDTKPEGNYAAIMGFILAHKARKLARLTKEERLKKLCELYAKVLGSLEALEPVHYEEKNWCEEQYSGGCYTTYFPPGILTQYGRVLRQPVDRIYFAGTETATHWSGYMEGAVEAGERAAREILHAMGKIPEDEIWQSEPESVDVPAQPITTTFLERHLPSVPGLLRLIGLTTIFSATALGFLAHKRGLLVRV

Aromatase = molecular target: T3, Aromatase (Homo sapiens, UniProt P11511); test: Inhibition of aromatase (unknown origin)
T3 sequence (P11511 whole entry): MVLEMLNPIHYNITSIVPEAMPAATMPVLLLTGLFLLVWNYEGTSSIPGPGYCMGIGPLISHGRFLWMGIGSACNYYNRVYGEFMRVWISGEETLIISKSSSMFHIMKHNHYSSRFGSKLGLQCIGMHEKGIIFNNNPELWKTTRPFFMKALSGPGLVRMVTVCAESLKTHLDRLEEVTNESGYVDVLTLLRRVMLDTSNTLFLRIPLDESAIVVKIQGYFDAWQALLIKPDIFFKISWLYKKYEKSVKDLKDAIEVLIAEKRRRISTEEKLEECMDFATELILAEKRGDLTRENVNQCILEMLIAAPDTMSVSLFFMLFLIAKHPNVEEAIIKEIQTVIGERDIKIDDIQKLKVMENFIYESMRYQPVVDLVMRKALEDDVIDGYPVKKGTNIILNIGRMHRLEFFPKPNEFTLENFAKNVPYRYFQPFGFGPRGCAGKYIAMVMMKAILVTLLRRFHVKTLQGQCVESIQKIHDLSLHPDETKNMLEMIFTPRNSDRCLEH

[4] = molecular target: T1, Amine oxidase [flavin-containing] A; test: Inhibition of MAO-A (unknown origin)

| inhibition at 1000 µM [1] [%] | inhibition [2] [%] | IC50 [3] [µM] | IC50 (Aromatase) [µM] | IC50 [4] [µM] | Compound |
| --- | --- | --- | --- | --- | --- |
| 50 | 28.1 |  |  |  | COc1ccc(-c2csc(N/N=C/c3ccc4cc(OC)ccc4c3)n2)cc1 |
| 52.2 | 35.5 |  |  |  | COc1ccc2cc(/C=N/Nc3nc(-c4ccc(F)cc4)cs3)ccc2c1 |
| 49.8 | 31.1 |  |  |  | COc1ccc2cc(/C=N/Nc3nc(-c4ccc(C)cc4)cs3)ccc2c1 |
| 60.2 | 30.2 | 0.039 | 0.031 |  | CCOC(=O)Cc1csc(N/N=C/c2ccc3cc(OC)ccc3c2)n1 |
| 90.9 | 82.3 |  |  | 0.072 | COc1ccc2cc(/C=N/Nc3nc(-c4ccccc4)c(C)s3)ccc2c1 |
| 55.8 | 33.9 |  | 0.042 |  | COc1ccc2cc(/C=N/NC3=NC(=O)CS3)ccc2c1 |
| 90.5 | 84.1 | 0.046 |  | 0.068 | COc1ccc2cc(/C=N/Nc3nc(-c4cccc([N+](=O)[O-])c4)cs3)ccc2c1 |
| 55.9 | 35.7 |  |  |  | COc1ccc2cc(/C=N/Nc3nc(-c4ccc5ccccc5c4)cs3)ccc2c1 |
| 48.4 | 28.8 |  |  |  | COc1ccc2cc(/C=N/Nc3nc(-c4ccc(Cl)cc4)cs3)ccc2c1 |
| 59.2 | 34.2 |  |  |  | COc1ccc2cc(/C=N/Nc3nc(-c4ccc(-c5ccccc5)cc4)cs3)ccc2c1 |
| 48.4 | 39.9 |  |  |  | COc1ccc2cc(/C=N/Nc3nc(-c4cccc(Cl)c4)cs3)ccc2c1 |
| 53.5 | 37 |  |  |  | COc1ccc2cc(/C=N/Nc3nc(-c4ccc(S(C)(=O)=O)cc4)cs3)ccc2c1 |
| 51.4 | 26.6 |  |  |  | COc1ccc2cc(/C=N/Nc3nc(-c4ccccc4)cs3)ccc2c1 |
| 47.7 | 32.5 |  |  |  | COc1ccc2cc(/C=N/Nc3nc(-c4ccc(Cl)c(Cl)c4)cs3)ccc2c1 |
| 57.8 | 33.4 | 0.082 |  |  | COc1ccc2cc(/C=N/Nc3nc(-c4ccc([N+](=O)[O-])cc4)cs3)ccc2c1 |
| 59.4 | 32.1 |  |  |  | COc1ccc2cc(/C=N/Nc3nc(-c4cccc(F)c4)cs3)ccc2c1 |
| 58.2 | 29.3 |  |  |  | CCOC(=O)c1sc(N/N=C/c2ccc3cc(OC)ccc3c2)nc1C |
| 58.7 | 30.4 |  |  |  | COc1ccc2cc(/C=N/Nc3nc(-c4ccc(C#N)cc4)cs3)ccc2c1 |
| 56.7 | 21.9 |  |  |  | COc1cccc(-c2csc(N/N=C/c3ccc4cc(OC)ccc4c3)n2)c1 |
| 58.4 | 27.7 |  |  |  | COc1ccc2cc(/C=N/Nc3nc(-c4cc5ccccc5o4)cs3)ccc2c1 |
| 54.4 | 30.9 |  |  |  | COc1ccc2cc(/C=N/Nc3nc(C)c(C)s3)ccc2c1 |

Source: ChEMBL document CHEMBL5154692, “Synthesis of novel thiazolyl hydrazone derivatives as potent dual monoamine oxidase-aromatase inhibitors” (Eur J Med Chem, 2022)
